Consider two compounds from US12311054B2, “Compositions and methods of using propylene sulfide-based polymers for treatment of Chagas disease” (priority 2019, dated 2025).

Data set [1] relates to extracellular T. cruzi developmental stages. The note with it: cited from earlier work.
The conditions of data set [2]: mice; cited from earlier work.
Data set [3] relates to T. cruzi Tulahuen strain amastigote (Luc-mNeonGreen). Description: Anti-amastigote activity in infected H9C2 cells, bioluminescent quantification, Tulahuen strain. In kind it is cell-based. The note with it: Trypanosoma cruzi, Tulauan strain amastigotes in H9C2 cells, bioluminescence, 48 h.
Method: For the evaluation of anti-amastigote activity of T. cruzi Tulahuen strain, 5000 H9C2 cells were seeded in a 96 well clear bottom tissue culture plate (Thermo Scientific). After 24 hours, the culture was infected with Luc-mNeonGreen Tulahuen strain trypomastigotes at a 1:5 host-to-parasite cell ratio for 24 h. […] The medium was replaced every 24 h. At 48 h, 10 μL of 15 mg mL-1 luciferin were added into each well, and the luciferase intensity was measured using a IVIS Spectrum (Caliper Life Science) and the ROI was analyzed with Softmas Pro. Exposure time varied from 5 s to 15 s depending on signal intensity.
Data set [4] has as its system T. cruzi Y strain amastigote. As to the kind of experiment: Anti-amastigote activity in infected H9C2 cells, Giemsa counting, Y strain. The class given is cell-based. The conditions noted are these: Trypanosoma cruzi, Y strain amastigotes in H9C2 cells, 48 h.
For data set [5], the system named is T. cruzi Y strain infected BALB/c mice. As to the kind of experiment: BNZ and BNZ-PS therapy in murine model of acute Chagas disease. The class given is in vivo, mouse.
A further data set relates to T. cruzi. Description: IC50 of free vs nanocarrier-loaded Benznidazole (description, stage and strain not stated). In kind it is cell-based. The note with it: Trypanosoma cruzi; free vs loaded in nanocarrier; typical / estimated values.
Data set [6] is described as follows: Assessment of the toxicity of BNZ and BNZ-PS in vivo. Set-up: species or system mouse. The note with it: BNZ 100 mg/kg. The procedure: […] Mice weight was recorded during the treatment course. […] Serums (Sera) were sent out to central lab (IDEXX BioResearch) to measure alanine aminotransferase (ALT/SGPT), aspartate aminotransferase (AST/SGOT), bile acid, bilirubin, blood urea nitrogen (BUN), creatinine, gamma-glutamyltransferase (GGT).

For data set [7], the system named is T. cruzi Y strain trypomastigote. Description: Anti-trypomastigote activity, resazurin assay, Y strain. The class given is cell-based. The conditions noted are these: Trypanosoma cruzi, 24 h, read-out: half-inhibitory concentration (IC50), Y strain trypomastigote. The procedure:
(§1) IC50 for two strains of T. cruzi. The trypancidal effectiveness of BNZ-PS for Y and Tulauen strain was evaluated in vitro using the resarzurin assay (FIG. 2a).
The Y strain of T. cruzi was used for all experiments. Epimastigotes were cultured using standard methods and tissue culture amastigotes and trypomastigotes were produced by the addition of log-phase epimastigotes to cultured H9C2 rat myoblast cells, which contain small numbers of metacyclic trypomastigotes capable of initiating mammalian cell infection. After several days of culture in H9C2 cells, amastigotes and trypomastigotes were purified for use in IC50 determination experiments.
Resazurin method was used to evaluate in vitro anti-trypanosoma activity against Y trypomastigotes. 1×10^7 trypomastigotes mL^−1 were incubated in 96-well plates containing serial dilution of BNZ and BNZ-PS in RPMI […] medium with 5% FBS, penicillin (100 μL/mL), […] (100 μL/mL) and L-glutamine (2 mM). For BNZ, the stock solution (1024 mM) was prepared in DMSO and made serial dilution to 1024 μM, 512 μM, 256 μM, 128 μM, 64 μM, 32 μM, 16 μM, 8 μM, 4 μM. […] The fluorescence was measure on a microplate reader (BMG Labtech) at 560/590 nm to evaluate trypomastigote viability. A log concentration vs response curve was generated and the BNZ IC50 was calculated in GraphPad Prism 7.0.

In data set [8] the test system is T. cruzi Tulauen strain trypomastigote. Description: Anti-trypomastigote activity, resazurin assay, Tulauen strain. In kind it is cell-based. The note with it: Trypanosoma cruzi, read-out: half-inhibitory concentration (IC50), Tulauan strain trypomastigote. As for the experimental part:
as §1
Resazurin method was used to evaluate in vitro anti-trypanosoma activity against Y trypomastigotes. 1×10^7 trypomastigotes mL^−1 were incubated in 96-well plates containing serial dilution of BNZ and BNZ-PS in RPMI […] medium with 5% FBS, penicillin (100 μL/mL), […] (100 μL/mL) and L-glutamine (2 mM). For BNZ, the stock solution (1024 mM) was prepared in DMSO and made serial dilution to 1024 μM, 512 μM, 256 μM, 128 μM, 64 μM, 32 μM, 16 μM, 8 μM, 4 μM. For BNZ-PS, the stock solution (BNZ 1170 μM) was made serial dilution to 256 μM, 128 μM, 64 μM, 32 μM, 16 μM, 8 μM, 4 μM, 2 μM, 1 μM, 0.5 μM. After incubation for 24 h, at 37° C. and 5% CO2, 10 μL of alamarBlue Cell Viability reagent (Invitrogen) were added in each well, then incubate at 37° C. for 4 h. The fluorescence was measure on a microplate reader (BMG Labtech) at 560/590 nm to evaluate trypomastigote viability. A log concentration vs response curve was generated and the BNZ IC50 was calculated in GraphPad Prism 7.0.

The test system of data set [9] is T. cruzi-infected patients. The note with it: standard BNZ doses; cited from earlier work.
For data set [10] the following is noted: humans; cited from earlier work.
The conditions of data set [11]: cited from earlier work.
For data set [12] the following is noted: traditional oral formulation; cited from earlier work.

Read-outs that look alike come from different tables or passages of the source.

Regarding `C[C@@H]1[C@H](O)[C@@H](C)/C=C/C=C/C=C/C=C/C=C/C=C/C=C/[C@H](O[C@@H]2O[C@H](C)[C@@H](O)[C@H](N)[C@@H]2O)C[C@@H]2O[C@](O)(C[C@@H](O)C[C@@H](O)[C@H](O)CC[C@@H](O)C[C@@H](O)CC(=O)O[C@H]1C)C[C@H](O)[C@H]2C(=O)O` [Amphotericin B], in [1], the “activity against extracellular T. cruzi developmental stages” value was “satisfactory”.
With `O=C(Cn1ccnc1[N+](=O)[O-])NCc1ccccc1` [BNZ, N-benzyl-2-(2-nitro-1H-imidazol-1-yl)acetamide], the figures for the “half-life (t1/2)” value in [2] and in data set [10] were 2 h and 12 h, respectively. The IC50 in [3] was 12.5 µM; in [4] it was 30.1 µM; in the data set with T. cruzi, about 33 µM; in [7], 55.9 µM; in [8] it was 12.4 µM. In data set [5] (end of experiment, 25 dpi), the “heart parasitemia (qPCR)” value was “significantly reduces the heart parasitemia”. Further, in data set [5] (infected mice treated from d7, monitored to d25), the suppression of parasitemia result is listed as “Effective suppression of parasitemia”. In [6] (d21), the “hepatotoxicity, serum ALT” value is reported as “show hepatotoxicity as reflected by increased serum ALT”. For the same compound, in data set [6] (BNZ-PS 1.5 or 0.15 mg/kg, 3 weeks), the “body weight during treatment” value is listed as “lose weight”. Further, the “patients interrupting treatment due to severe side effects” value in data set [9] is 20%. Besides, the water solubility entry in [11] was “practically insoluble in water”; in data set [11] (listed as Benznidazole (BNZ)), “poor water solubility”. Moreover, the “fraction of drug bound to plasmatic proteins” value in data set [12] is “over 40%”.
